Experimental data as given in PubChem BioAssay (NCI).
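How tested: cells in 96-well plates exposed to compound for 48 hours at five concentrations. GI50 = concentration required for 50% inhibition of growth. TGI marks complete inhibition of growth.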

Tests used:
Test in all cases: NCI tumour cell line growth inhibition, 48 h
NCI-H522 lung = test system: NCI-H522 lung
HS 578T breast = test system: HS 578T breast
HCT-15 colon = test system: HCT-15 colon
KM12 colon = test system: KM12 colon
CAKI-1 renal = test system: CAKI-1 renal
SN12C renal = test system: SN12C renal
NCI-H460 lung = test system: NCI-H460 lung
DU-145 prostate = test system: DU-145 prostate
SK-MEL-2 melanoma = test system: SK-MEL-2 melanoma
SNB-75 CNS = test system: SNB-75 CNS
A498 renal = test system: A498 renal
SR leukemia = test system: SR leukemia
HT29 colon = test system: HT29 colon
LOX IMVI melanoma = test system: LOX IMVI melanoma
U251 CNS = test system: U251 CNS
PC-3 prostate = test system: PC-3 prostate
OVCAR-4 ovarian = test system: OVCAR-4 ovarian
NCI-H23 lung = test system: NCI-H23 lung
HCC-2998 colon = test system: HCC-2998 colon
K-562 leukemia = test system: K-562 leukemia
UACC-62 melanoma = test system: UACC-62 melanoma
SF-268 CNS = test system: SF-268 CNS
HOP-92 NSCLC = test system: HOP-92 NSCLC
MDA-MB-231 breast = test system: MDA-MB-231 breast
SK-OV-3 ovarian = test system: SK-OV-3 ovarian
CCRF-CEM leukemia = test system: CCRF-CEM leukemia
UACC-257 melanoma = test system: UACC-257 melanoma
786-0 renal = test system: 786-0 renal
HL-60(TB) leukemia = test system: HL-60(TB) leukemia
MDA-MB-435 = test system: MDA-MB-435
M14 melanoma = test system: M14 melanoma
EKVX NSCLC = test system: EKVX NSCLC
OVCAR-8 ovarian = test system: OVCAR-8 ovarian
UO-31 renal = test system: UO-31 renal
COLO 205 colon = test system: COLO 205 colon
MCF7 breast = test system: MCF7 breast
SF-539 CNS = test system: SF-539 CNS
SK-MEL-28 melanoma = test system: SK-MEL-28 melanoma
OVCAR-5 ovarian = test system: OVCAR-5 ovarian
SNB-19 CNS = test system: SNB-19 CNS
TK-10 renal = test system: TK-10 renal
RXF 393 renal = test system: RXF 393 renal
MOLT-4 leukemia = test system: MOLT-4 leukemia
ACHN renal = test system: ACHN renal
NCI-H226 lung = test system: NCI-H226 lung
NCI/ADR-RES ovarian = test system: NCI/ADR-RES ovarian
MALME-3M melanoma = test system: MALME-3M melanoma
SF-295 CNS = test system: SF-295 CNS
T-47D breast = test system: T-47D breast
IGROV1 ovarian = test system: IGROV1 ovarian
BT-549 breast = test system: BT-549 breast
A549 NSCLC = test system: A549 NSCLC
SK-MEL-5 melanoma = test system: SK-MEL-5 melanoma
HCT-116 colon = test system: HCT-116 colon
SW-620 colon = test system: SW-620 colon
RPMI-8226 leukemia = test system: RPMI-8226 leukemia
HOP-62 NSCLC = test system: HOP-62 NSCLC
OVCAR-3 ovarian = test system: OVCAR-3 ovarian

`CCN1C(=O)N(CC)C2C1NN=c1s/c(=C\c3ccccc3Br)c(=O)n12` (stereo unspecified) gave a GI50 (NCI-H522 lung) of 0.019 µM, a TGI (NCI-H522 lung) of 1.12 µM and a GI50 (HS 578T breast) of 0.0355 µM. For the same molecule, the TGI (HS 578T breast) was 20.5 µM, the GI50 (HCT-15 colon) was 0.0303 µM and the TGI (HCT-15 colon) was 12.6 µM. For the same molecule, the GI50 (KM12 colon) was 0.0236 µM, the TGI (KM12 colon) was 1.5 µM and the GI50 (CAKI-1 renal) was 0.0242 µM. It also gave a TGI (CAKI-1 renal) of 26.3 µM, a GI50 (SN12C renal) of 0.0519 µM and a TGI (SN12C renal) of 31.2 µM. It also gave a GI50 (NCI-H460 lung) of 0.0337 µM, a TGI (NCI-H460 lung) of 4.14 µM and a GI50 (DU-145 prostate) of 0.0362 µM. It also gave a TGI (DU-145 prostate) greater than 38.7 µM, a GI50 (SK-MEL-2 melanoma) of 0.308 µM and a TGI (SK-MEL-2 melanoma) of 25.5 µM. It also gave a GI50 (SNB-75 CNS) of 0.0262 µM, a TGI (SNB-75 CNS) of 2.22 µM and a GI50 (A498 renal) of less than 0.0156 µM. For the same molecule, the TGI (A498 renal) was 0.0598 µM, the GI50 (SR leukemia) was 0.023 µM and the TGI (SR leukemia) was greater than 100 µM. For the same molecule, the GI50 (HT29 colon) was 0.0348 µM, the TGI (HT29 colon) was 14 µM and the GI50 (LOX IMVI melanoma) was 0.0284 µM. For the same molecule, the TGI (LOX IMVI melanoma) was 16.6 µM, the GI50 (U251 CNS) was 0.0418 µM and the TGI (U251 CNS) was 22.3 µM. The GI50 (PC-3 prostate) was 0.0383 µM, the TGI (PC-3 prostate) was 44.5 µM and the GI50 (OVCAR-4 ovarian) was 0.069 µM. The TGI (OVCAR-4 ovarian) was 63 µM, the GI50 (NCI-H23 lung) was 0.0552 µM and the TGI (NCI-H23 lung) was 29.6 µM. The GI50 (HCC-2998 colon) was 0.0392 µM, the TGI (HCC-2998 colon) was 4.12 µM and the GI50 (K-562 leukemia) was 0.0329 µM. For the same molecule, the TGI (K-562 leukemia) was greater than 100 µM, the GI50 (UACC-62 melanoma) was 0.278 µM and the TGI (UACC-62 melanoma) was 20.6 µM. For the same molecule, the GI50 (SF-268 CNS) was 0.0612 µM, the TGI (SF-268 CNS) was greater than 59.5 µM and the GI50 (HOP-92 NSCLC) was 0.37 µM. The TGI (HOP-92 NSCLC) was 44.7 µM, the GI50 (MDA-MB-231 breast) was 0.0347 µM and the TGI (MDA-MB-231 breast) was 11.4 µM. The GI50 (SK-OV-3 ovarian) was 0.0667 µM, the TGI (SK-OV-3 ovarian) was greater than 100 µM and the GI50 (CCRF-CEM leukemia) was 0.0354 µM. For the same molecule, the TGI (CCRF-CEM leukemia) was greater than 100 µM, the GI50 (UACC-257 melanoma) was 9.29 µM and the TGI (UACC-257 melanoma) was 33.3 µM. It also gave a GI50 (786-0 renal) of 0.0525 µM, a TGI (786-0 renal) of 37 µM and a GI50 (HL-60(TB) leukemia) of 0.0241 µM. The TGI (HL-60(TB) leukemia) was 0.0639 µM, the GI50 (MDA-MB-435) was less than 0.0137 µM and the TGI (MDA-MB-435) was 0.0416 µM. For the same molecule, the GI50 (M14 melanoma) was 0.0318 µM, the TGI (M14 melanoma) was 13.8 µM and the GI50 (EKVX NSCLC) was 0.317 µM. It also gave a TGI (EKVX NSCLC) greater than 70.7 µM, a GI50 (OVCAR-8 ovarian) of 0.0424 µM and a TGI (OVCAR-8 ovarian) greater than 73.5 µM. The GI50 (UO-31 renal) was 0.205 µM, the TGI (UO-31 renal) was 34.4 µM and the GI50 (COLO 205 colon) was 0.03 µM. For the same molecule, the TGI (COLO 205 colon) was 0.118 µM, the GI50 (MCF7 breast) was 0.0328 µM and the TGI (MCF7 breast) was 16.5 µM. It also gave a GI50 (SF-539 CNS) of 0.0242 µM, a TGI (SF-539 CNS) of 0.382 µM and a GI50 (SK-MEL-28 melanoma) of 7.19 µM. The TGI (SK-MEL-28 melanoma) was 25 µM, the GI50 (OVCAR-5 ovarian) was 0.061 µM and the TGI (OVCAR-5 ovarian) was greater than 48.7 µM. The GI50 (SNB-19 CNS) was 0.052 µM, the TGI (SNB-19 CNS) was greater than 67.9 µM and the GI50 (TK-10 renal) was 12.5 µM. For the same molecule, the TGI (TK-10 renal) was greater than 100 µM, the GI50 (RXF 393 renal) was 0.0389 µM and the TGI (RXF 393 renal) was 17.4 µM. The GI50 (MOLT-4 leukemia) was 0.0399 µM, the TGI (MOLT-4 leukemia) was 29.5 µM and the GI50 (ACHN renal) was 0.0437 µM. The TGI (ACHN renal) was greater than 61.6 µM, the GI50 (NCI-H226 lung) was 0.132 µM and the TGI (NCI-H226 lung) was 4.98 µM. The GI50 (NCI/ADR-RES ovarian) was 0.0228 µM, the TGI (NCI/ADR-RES ovarian) was 15.3 µM and the GI50 (MALME-3M melanoma) was 1.12 µM. It also gave a TGI (MALME-3M melanoma) of 33.7 µM, a GI50 (SF-295 CNS) of 0.0286 µM and a TGI (SF-295 CNS) of 15.1 µM. It also gave a GI50 (T-47D breast) of 13.5 µM, a TGI (T-47D breast) of 57.9 µM and a GI50 (IGROV1 ovarian) of 0.0408 µM. It also gave a TGI (IGROV1 ovarian) of 21.8 µM, a GI50 (BT-549 breast) of 0.0327 µM and a TGI (BT-549 breast) of 17.1 µM. The GI50 (A549 NSCLC) was 0.0408 µM, the TGI (A549 NSCLC) was greater than 75.3 µM and the GI50 (SK-MEL-5 melanoma) was 0.0319 µM. For the same molecule, the TGI (SK-MEL-5 melanoma) was 0.133 µM, the GI50 (HCT-116 colon) was 0.0302 µM and the TGI (HCT-116 colon) was 11.6 µM. The GI50 (SW-620 colon) was 0.037 µM, the TGI (SW-620 colon) was greater than 54.2 µM and the GI50 (RPMI-8226 leukemia) was 0.0333 µM. It also gave a TGI (RPMI-8226 leukemia) of 8.76 µM, a GI50 (HOP-62 NSCLC) of 0.0485 µM and a TGI (HOP-62 NSCLC) of 20.4 µM. The GI50 (OVCAR-3 ovarian) was 0.0266 µM and the TGI (OVCAR-3 ovarian) was 0.0764 µM.
